Results: US20230293404A1, “Compositions Comprising Natural Polymers and One or More (Bio)-Alkanediols” (Symrise AG, priority 2020, published 2023)

Experiments:
[1] = Maximum solubility of alkanediols in water (visual assessment); assay type: physicochemical; details: assessed at ambient temperature after 24 h storage at 5° C.; visual observation
Description: The water solubility of a substance is the saturation mass concentration of the substance in water at a given temperature. The determination of the solubility in water relates to essentially pure substances which are stable in water and not volatile.
For the determination of the maximum water solubility of an alkanediol, water and different concentrations of the respective alkanediol were blended by stirring. […] The determination of whether the alkanediol has dissolved in water is based entirely on visual observation.

[2] = test system: microbial load of natural polymers; assay: Microbial load of mixtures of natural polymers with alkanediols (plating, CFU count); assay type: cell-based, bacteria
Procedure: The following tests were performed to show the influence of different alkanediols on the microbial load of natural polymers.
A selection of natural polymers as specified in Table 1 was systematically analyzed in combination with different 1,2-alkanediols and 2,3-alkanediols (0.5%). The polymers were chosen to be representative from different polymer classes:
A mixture of the natural polymer (concentration as recommended by supplier) with water and 1,2-alkanediol (0.5%) or 2,3-alkanediol (0.5%) or a mixture of 1,2-alkanediol and 2,3-alkanediol (0.5% final concentration) was prepared, as representative of a cold formulation preparation processes, and directly sampled for determination of microbial load. Additionally, the mixtures were stored at 40° C. and again sampled for microbial load after 2 days and 7 days.
The microbial load of the mixtures was determined by plating 1000 μl (or respective dilutions of the material) on an agar plate based on universal bacterial growth medium (Caseinpepton-Sojamehlpepton-Bouillon, Merck 1.05459+Agar No. 1, Oxoid LP0011). The plates were then incubated at 37° C. for 5 days and then photo documented. In parallel, bacterial colonies were counted (CFU—colony forming units per ml).

[3] = Physical state of alkanediols and alkanediol mixtures at RTP; assay type: physicochemical; details: at RTP (room temperature, normal pressure); FIG. 3 and FIG. 4
Description: The term “liquid alkanediol” within the context of the present invention means an alkanediol component which is liquid at room or ambient temperature and under normal pressure, i.e. standard RTP conditions.
FIG. 3 is a photograph showing from left to right samples of the liquid 1,2-pentanediol, 1,2-hexanediol, 1,2-heptanediol, 2,3-heptanediol, 2,3-octanediol and 2,3-undecanediol in comparison to the solid 1,2-octanediol, 1,2-undecanediol, 1,2-nonanediol and the liquid 2,3-nonanediol. The first six alkanediols are liquid at RTP, whereas 1,2-octanediol, 1,2-nonanediol and 1,2-undecanediol are solid substances at RTP; 2,3-nonanediol is also liquid at RTP.
FIG. 4 is a representative photograph of samples of mixtures of 1,2-alkanediols with the respective 2,3-alkanediol. All mixtures are liquid. They are shown in the following order: 1,2-heptanediol (95%)+2,3-heptanediol (5%), 1,2-octanediol (95%)+2,3-octanediol (5%), and 1,2-nonanediol (95%)+2,3-nonanediol (5%).

## CCCC(O)CO (centres unmarked) [1,2-pentanediol]
[1]
  Maximum solubility in water: 50 % by weight
[2]; Covathick (2009, cellulose 0.5%) in water + 0.5% 1,2-alkanediol, 2 days storage at 40° C.
  Bacterial load (colony forming units): >13 CFU per ml
[2]; Covathick (2009, cellulose 0.5%) in water + 0.5% 1,2-alkanediol, 7 days storage at 40° C.
  Bacterial load (colony forming units): 4 CFU per ml
[2]; Covathick (2009, cellulose 0.5%) in water + 0.5% 1,2-alkanediol, fresh
  Bacterial load (colony forming units): 84 CFU per ml
[2]; Genuvisco (CG-131, carrageenan 0.5%) in water + 0.5% 1,2-alkanediol, 2 days storage at 40° C.
  Bacterial load (colony forming units): 2800 CFU per ml
[2]; Genuvisco (CG-131, carrageenan 0.5%) in water + 0.5% 1,2-alkanediol, 7 days storage at 40° C.
  Bacterial load (colony forming units): 0 CFU per ml
[2]; Genuvisco (CG-131, carrageenan 0.5%) in water + 0.5% 1,2-alkanediol, fresh
  Bacterial load (colony forming units): 35 CFU per ml
[2]; Nativacare (5600, corn starch 3%) in water + 0.5% 1,2-alkanediol, 2 days storage at 40° C.
  Bacterial load (colony forming units): 27 CFU per ml
[2]; Nativacare (5600, corn starch 3%) in water + 0.5% 1,2-alkanediol, 7 days storage at 40° C.
  Bacterial load (colony forming units): >1000 CFU per ml
[2]; Nativacare (5600, corn starch 3%) in water + 0.5% 1,2-alkanediol, fresh
  Bacterial load (colony forming units): 0 CFU per ml
[2]; Polycos-N 75 (guar gum 0.5%) in water + 0.5% 1,2-alkanediol, 7 days storage at 40° C.
  Bacterial load (colony forming units): 13 CFU per ml
[2]; Polycos-N 75 (guar gum 0.5%) in water + 0.5% 1,2-alkanediol, fresh
  Bacterial load (colony forming units): 13 CFU per ml
[2]; Xanthan Gum (Rheocare XGN 0.5%) in water + 0.5% 1,2-alkanediol, fresh
  Bacterial load (colony forming units): >249 CFU per ml
[3]
  Physical state: liquid
